Like-named read-outs stand apart in the source and are kept apart here.
Assays:
Type in all cases: cell-based, human
A549 cells [1] = assay: Intracellular GSH levels by HPLC-EC in A549 cells; settings: for activity at 25 µM / activity at 50 µM / activity at 75 µM: Homo sapiens; for activity at 75 µM: A549, 75 μM
Experimental: (§1) Cell lines and culture conditions. Human lung epithelial cancer (A549), human leukemia HL-60 and human prostate (PC-3) tumor cells were purchased from ATCC (Manassas, Va.). A549 and PC-3 cells were grown in Ham's F12 medium (F12) and Kaighn's modification of Ham's F12 medium (F12K) with 2 mM L-glutamine (ATCC), respectively, supplemented with 10% fetal bovine serum (FBS) and 5% pen/strep (10,000 unit, Cellgro). HL-60 cells were grown in Iscove's modified Dulbecco's medium with 4 mM L-glutamine (ATCC) supplemented with 20% FBS and 5% pen/strep. Cell were grown in T-75 flask at 37° C. and 5% CO2 air atmosphere and in 24-well plates for GSH levels and LDH release measurements.
(§2) Intracellular levels of GSH. Intracellular GSH levels can be determined by HPLC-EC. Cultured cells from 24-well plates were washed once with 1 ml of PBS and then re-suspended in 0.5 ml of distilled water with 40 μM of digitonin (2 mM stock solution in DMSO) for 30 min at room temperature. Then, 50 μl of 10% meta-phosphoric acid were added (1% final concentration), the samples were sonicated for 2 min, centrifuged at 20,000 g for 10 min, and 0.2 ml of supernatant placed in vials for HPLC analysis. […] The flow rate was […]. The retention time for GSH in these conditions was 7.5 min. The HPLC instrument was from ESA, Inc. (Chelmsford, Mass.), equipped with an autosampler (model 540) and a Coul array detector (model 5600A). The potential applied was +0.75 V vs. H/Pd electrode, and the injection volume 5 μl.

HL-60 cells [2] = assay: Intracellular GSH levels by HPLC-EC in HL-60 cells; settings: for Int. GSH % con. / activity at 75 µM / activity at 25 µM / activity at 50 µM: 24 hours treatment; for activity at 75 µM / activity at 25 µM / activity at 50 µM: Homo sapiens, read-out: Int. GSH % con.; for activity at 75 µM: HL-60, 75 μM; for effect on intracellular GSH (words): HL-60 cells
Experimental: as §1, §2

PC-3 cells [3] = assay: Intracellular GSH levels by HPLC-EC in PC-3 cells; settings: for Int. GSH % con. / activity at 25 µM: PC-3, 25 μM; for Int. GSH % con. / activity at 50 µM / activity at 25 µM: 24 hours treatment; for activity at 50 µM / activity at 25 µM: Homo sapiens, read-out: Int. GSH % con.; for activity at 50 µM: PC-3, 50 μM
Experimental: as §1, §2

A549 cells [4] = assay: Cytotoxicity as LDH release in A549 cells; settings: 48 hours treatment
Experimental: as §1
(§3) Assessment of cytotoxicity. In one exemplary method, membrane integrity of A549, HL-60 and PC-3 cells was used as an index of drug-induced cytotoxicity, and was assessed by monitoring the release of cytosolic lactate dehydrogenase (LDH). LDH activity was measured in the culture medium and cell lysates (50 mM HEPES, Triton X-100 0.5%, pH 7) using a plate reader format as previously described (41). Briefly, 5 μl of cell culture supernatant and lysates were incubated with 0.24 mM NADH in a Tris/NaCl pH 7.2 buffer in 96-well plates for 5 min at 25° C. The reaction was started by the addition of 9.8 mM pyruvate and the consumption of NADH followed at 340 nm for 5 min at 30° C. Percent LDH release was calculated by the following: (supernatant LDH/supernatant LDH+lysate LDH)×100.

HL-60 cells [5] = assay: Cytotoxicity as LDH release in HL-60 cells; settings: for LDH rel. % con. / LDH release, % of control at 50 µM / LDH release, % of control at 25 µM: 48 hours treatment; for LDH release, % of control at 50 µM / LDH release, % of control at 25 µM: Homo sapiens, read-out: LDH rel. % con.; for toxicity: HL-60 cells
Experimental: as §1, §3

PC-3 cells [6] = assay: Cytotoxicity as LDH release in PC-3 cells; settings: for LDH release, % of control at 50 µM: Homo sapiens, read-out: LDH rel. % con.
Experimental: as §1, §3

[7] = A549, 25 μM, 2 h, read-out: Intracellular GSH levels, % compared to control
[8] = PC-3, 50 μM, 48 hours treatment
[9] = A549, 50 μM, 24 hours treatment, read-out: Int. GSH % con.
[10] = Homo sapiens, A549, 75 μM, read-out: LDH rel. % con.
[11] = 24 hours treatment, read-out: Int. GSH % con.
[12] = A549, 25 μM, 24 hours treatment, read-out: Int. GSH % con.

COc1ccc2c(=O)cc(-c3ccccc3)oc2c1 [7-MF, 7-Methoxyflavone]
effect on intracellular GSH (words) (A549 cells [1]; A549 cells): less effective than 7-HF but more effective than flavone
activity at 25 µM (A549 cells [1]; [7]): 78.2 ± 2.4%

O=c1cc(-c2ccc(O)cc2)oc2cc(O)cc(O)c12 [Apigenin]
Intracellular GSH levels, % compared to control (A549 cells [1]; A549, 25 μM, 4 h): 17.1 ± 1.4%
Int. GSH % con. (A549 cells [1]; A549, 25 μM, 24 hours treatment): 9 % con.
Int. GSH % con. (HL-60 cells [2]; HL-60, 50 μM): 66 % con.
Int. GSH % con. (PC-3 cells [3]): 32 % con.
effect on intracellular GSH (words) (PC-3 cells [3]; PC-3 cells): one active flavone-like structure for inducing GSH depletion
LDH rel. % con. (A549 cells [4]; A549, 75 μM): 284 % con.
LDH rel. % con. (HL-60 cells [5]; HL-60, 50 μM): 259 % con.
LDH rel. % con. (PC-3 cells [6]; [8]): 142 % con.
effect on curcumin-induced toxicity, LDH release (PC-3 cells [6]; PC-3 cells, 48 hours (FIG. 20C)): potentiated the curcumin's toxicity, but unexpectedly less than chrysin

O=c1cc(-c2ccccc2)oc2cc(O)c(O)c(O)c12 [Baicalein, 5,6,7 trihydroxyflavone]
activity at 50 µM (A549 cells [1]; [9]): 41%
activity at 75 µM (HL-60 cells [2]): 82%
activity at 50 µM (PC-3 cells [3]): 100%
LDH release, % of control at 75 µM (A549 cells [4]; [10]): 206%
LDH release, % of control at 50 µM (HL-60 cells [5]; HL-60, 50 μM): 129%
LDH release, % of control at 50 µM (PC-3 cells [6]; [8]): 94%

COc1cc(/C=C/C(=O)CC(=O)/C=C/c2ccc(O)c(OC)c2)ccc1O [Curcumin, reference compound]
activity at 50 µM (A549 cells [1]; [9]): 53%
activity at 25 µM (HL-60 cells [2]; HL-60, 25 μM): 221%
activity at 25 µM (PC-3 cells [3]): 170%
LDH release, % of control at 75 µM (A549 cells [4]; [10]): 140%
LDH release, % of control at 25 µM (HL-60 cells [5]; HL-60, 25 μM): 180%
LDH release, % of control at 50 µM (PC-3 cells [6]; [8]): 180%

Oc1cc(O)c2cc(O)c(-c3ccc(O)c(O)c3)[o+]c2c1 [Cyanidin]
activity at 75 µM (A549 cells [1]; [11]): 82%
activity at 75 µM (HL-60 cells [2]): 95%
activity at 50 µM (PC-3 cells [3]): 120%
LDH release, % of control at 75 µM (A549 cells [4]; [10]): 110%
LDH release, % of control at 50 µM (HL-60 cells [5]; HL-60, 50 μM): 110%
LDH release, % of control at 50 µM (PC-3 cells [6]; [8]): 93%

Oc1cc(O)c2c(c1)O[C@H](c1ccc(O)c(O)c1)[C@H](O)C2 [Epicatechin, (−)-epicatechin]
activity at 75 µM (A549 cells [1]; [11]): 47%
activity at 75 µM (HL-60 cells [2]): 90%
activity at 50 µM (PC-3 cells [3]): 115%
LDH release, % of control at 75 µM (A549 cells [4]; [10]): 104%
LDH release, % of control at 50 µM (HL-60 cells [5]; HL-60, 50 μM): 76%
LDH release, % of control at 50 µM (PC-3 cells [6]; [8]): 88%

COc1cc([C@@H]2c3cc4c(cc3[C@@H](O[C@@H]3O[C@@H]5CO[C@@H](C)O[C@H]5[C@H](O)[C@H]3O)[C@H]3COC(=O)[C@H]23)OCO4)cc(OC)c1O [Etoposide, reference compound]
activity at 50 µM (A549 cells [1]; [9]): 55%
effect on intracellular GSH (words) (HL-60 cells [2]): relatively effective for depleting GSH
activity at 25 µM (HL-60 cells [2]; HL-60, 25 μM): 7%
activity at 25 µM (PC-3 cells [3]): 83%
LDH release, % of control at 50 µM (A549 cells [4]; Homo sapiens, A549, 50 μM, read-out: LDH rel. % con.): 294%
toxicity (HL-60 cells [5]): toxic
LDH release, % of control at 25 µM (HL-60 cells [5]; HL-60, 25 μM): 290%
LDH release, % of control at 50 µM (PC-3 cells [6]; [8]): 124%

O=c1c(O)c(-c2ccc(O)c(O)c2)oc2cc(O)ccc12 [Fisetin]
activity at 50 µM (A549 cells [1]; [9]): 50%
effect on intracellular GSH (words) (HL-60 cells [2]): relatively effective for depleting GSH
activity at 50 µM (HL-60 cells [2]; HL-60, 50 μM): 16%
activity at 50 µM (PC-3 cells [3]): 100%
LDH release, % of control at 75 µM (A549 cells [4]; [10]): 267%
toxicity (HL-60 cells [5]): toxic
LDH release, % of control at 50 µM (HL-60 cells [5]; HL-60, 50 μM): 166%
LDH release, % of control at 50 µM (PC-3 cells [6]; [8]): 109%

O=c1cc(-c2ccccc2)oc2ccccc12 [Flavone, flavone]
activity at 25 µM (A549 cells [1]; [7]): 89.7 ± 0.6%
activity at 25 µM (A549 cells [1]; A549, 25 μM, 4 h, read-out: Intracellular GSH levels, % compared to control): 29.7 ± 4.8%
activity at 25 µM (A549 cells [1]; [12]): < 5%
activity at 50 µM (HL-60 cells [2]; HL-60, 50 μM): 85%
activity at 25 µM (PC-3 cells [3]): 84%
LDH release, % of control at 75 µM (A549 cells [4]; [10]): 164%
LDH release, % of control at 50 µM (HL-60 cells [5]; HL-60, 50 μM): 116%
LDH release, % of control at 50 µM (PC-3 cells [6]; [8]): 91%

O=c1c(O)c(-c2ccccc2)oc2cc(O)cc(O)c12 [Galangin, 3,5,7 trihydroxyflavone]
activity at 25 µM (A549 cells [1]; [7]): 62.9 ± 0.4%
activity at 25 µM (A549 cells [1]; [12]): < 5%
activity at 50 µM (HL-60 cells [2]; HL-60, 50 μM): 69%
activity at 25 µM (PC-3 cells [3]): 68%
LDH release, % of control at 75 µM (A549 cells [4]; [10]): 155%
LDH release, % of control at 50 µM (HL-60 cells [5]; HL-60, 50 μM): 114%
LDH release, % of control at 50 µM (PC-3 cells [6]; [8]): 140%

C[C@]12CC[C@@H]3c4ccc(O)cc4CC[C@H]3[C@@H]1CC[C@@H]2O [β-Estradiol, β-estradiol, reference compound]
Int. GSH % con. (A549 cells [1]; A549, 50 μM, 24 hours treatment): 41 % con.
Int. GSH % con. (HL-60 cells [2]; HL-60, 25 μM): 70 % con.
Int. GSH % con. (PC-3 cells [3]): 98 % con.
LDH rel. % con. (HL-60 cells [5]; HL-60, 25 μM): 120 % con.
